According to publication PMC4754833, “Rilpivirine analogs potently inhibit drug-resistant HIV-1 mutants” (Retrovirology, 2016):
Read-outs that look alike come from different tables or passages of the source.

Columns and labels:
HIV-1 RT mutant M230L = test: single round infection assay, M230L; assay type: cell-based; conditions: M230L vs WT
Protocol: (§1) The human osteosarcoma cell line, HOS, was obtained from Dr. Richard Schwartz (Michigan State University, East Lansing, MI) and grown in Dulbecco’s modified Eagle’s medium (Invitrogen, Carlsbad, CA) supplemented with 5 % (v/v) fetal bovine serum, 5 % newborn calf serum, and penicillin (50 units/ml) plus streptomycin (50 µg/ml; Quality Biological, Gaithersburg, MD). Virion production and single-round infectivity assays were used to determine antiviral activity (IC50 values) of the compounds as previously described.
(§2) pNLNgoMIVR-ΔEnv.LUC has been described previously. The RT open reading frame was removed from pNLNgoMIVR-ΔEnv.LUC (digestion with SpeI and SalI) and inserted between the SpeI and SalI sites of pBluescript II KS+. Using that construct as the wild-type template, we prepared the following HIV-1 RT mutants using the QuikChange II XL (Stratagene, La Jolla, CA) site-directed mutagenesis protocol kit: L100I, K103N, Y181C, Y188L, H221Y, K103N/Y181C, G190A, G190S, M230L, P236L, L100I/K103N, K103N/P225H, V106A/G190A/F227L, V106A, L234I, V106A/F227L, V106A/L234I, V106A/F227L/L234I, E40K, D67E, K101E, V111A, E138K, M184I, M184V, K101E/M184I, K101E/M184V, E138K/M184I, E138K/M184V, K101P, Y181I, and K101P/V179I. The following sense oligonucleotides were used with matching cognate antisense oligonucleotides (not shown) (Integrated DNA Technologies, Coralville, IA) in the mutagenesis: L100I, 5′-[…]-3′; L100I 2-103, 5′-[…]-3′; K103N, 5′-[…]-3′; Y181C, 5′-[…]-3′; Y188L, 5′-[…]-3′; H221Y, 5′-[…]-3′; G190A, 5′-[…]-3′; G190S, 5′-[…]-3′; P225H, 5′-[…]-3′; F227, 5′-[…]-3′; M230L, 5′-[…]-3′; P236L, 5′-[…]-3′; V106A, 5′-[…]-3′; L234I, 5′-[…]-3′; E40K, 5′-[…]-3′; D67E, 5′-[…]-3′; K101E, 5′-[…]-3′; V111A, 5′-[…]-3′; E138K, 5′-[…]-3′; M184I, 5′-[…]-3′; M184V, 5′-[…]-3′; K101P, 5′-[…]-3′; Y181I, 5′-[…]-3′; K101P/V179I, 5′-[…]-3′. The double mutants K103N/Y181C, K103N/P225H, and L100I/K103N were made using the previously generated K103N mutant and the appropriate oligonucleotides to add the second mutation, Y181C, P225, and L100I respectively. The double mutants V106A/F227L and V106A/L234I were prepared using the previously generated V106A mutant and the appropriate oligonucleotides to add the second mutation, F227L and L234I, respectively. The double mutants K101E/M184I and K101E/M184V were constructed using the previously generated K101E mutant and the appropriate oligonucleotides to add the second mutation, M184I and M184V, respectively. The double mutants E138K/M184I and E138K/M184V were constructed using the previously generated E138K mutant and the appropriate oligonucleotides for the second mutation, M184I and M184V, respectively. The triple mutant V106A/F227L/L234I was made using the previously generated V106A/F227L double mutant and the appropriate oligonucleotides for the third mutation, L234I. The triple mutant V106A/G190A/F227L was constructed in a series of steps using the previously generated V106A mutant and the appropriate oligonucleotides for the second mutation, G190A, to generate the double mutant V106A/G190A, and then the triple mutant was made using double mutant V106A/G190A and oligonucleotides for the third mutation, F227L. The DNA sequence of each construct was verified by DNA sequence determination. The sequences encoding the mutant RTs were then subcloned into pNLNgoMIVR-ΔEnv.LUC (between the KpnI and SalI sites) to produce the mutant HIV-1 constructs. These DNA sequences were also checked independently by DNA sequence determination.
(§3) 10.1186/s12977-016-0244-2 The IC50 values (nM) of RPV and the RPV analogs were determined against the NNRTI resistant mutants were measured by using a single round infection assay, n = 4. The concentrations (nM) are measured by reductions in luciferase reporter activity followed by the standard deviations. […]

HIV-1 RT mutant K103N = tested on: HIV-1 RT mutant K103N; parameters: method as in PMID 23217210; conditions: previous study; cited from earlier work
[1] = tested on: HIV-1 RT mutant E138K/M184I; test: single round infection assay, E138K/M184I; assay type: cell-based; conditions: E138K/M184I vs WT
Protocol: as §1, §2, §3

HIV-1 RT mutant Y181C = tested on: HIV-1 RT mutant Y181C; parameters: method as in PMID 23217210; conditions: previous study; cited from earlier work
HIV-1 RT mutant P236L = test: single round infection assay, P236L; assay type: cell-based
Protocol: as §1, §2, §3

HIV-1 RT mutant E138K = test: single round infection assay, E138K; assay type: cell-based; conditions: E138K vs WT
Protocol: as §1, §2, §3

WT HIV-1 [2] = test: single round infection luciferase assay, WT HIV-1; assay type: cell-based; conditions: Human immunodeficiency virus 1
Protocol: as §1, §2, §3

[3] = tested on: HIV-1 RT mutant K101P/V179I; test: single round infection assay, K101P/V179I; assay type: cell-based
Protocol: as §1, §2, §3

HIV-1 RT mutant G190A = test: single round infection assay, G190A; assay type: cell-based; conditions: Human immunodeficiency virus 1
Protocol: as §1, §2, §3

WT HIV-1 [4] = conditions: previous study; cited from earlier work
HIV-1 RT mutant Y181I = test: single round infection assay, Y181I; assay type: cell-based
Protocol: as §1, §2, §3

HIV-1 RT mutant K101P = test: single round infection assay, K101P; assay type: cell-based
Protocol: as §1, §2, §3

[5] = tested on: HIV-1 RT mutant K103N/P225H; test: single round infection assay, K103N/P225H; assay type: cell-based; conditions: Human immunodeficiency virus 1
Protocol: as §1, §2, §3

[6] = tested on: HIV-1 RT mutant V106A/F227L; test: single round infection assay, V106A/F227L; assay type: cell-based; conditions: V106A/F227L vs WT
Protocol: as §1, §2, §3

HIV-1 RT mutant H221Y = tested on: HIV-1 RT mutant H221Y; parameters: method as in PMID 23217210; conditions: previous study; cited from earlier work
HIV-1 RT mutant G190S = test: single round infection assay, G190S; assay type: cell-based; conditions: Human immunodeficiency virus 1
Protocol: as §1, §2, §3

[7] = tested on: HIV-1 RT mutant V106A/G190A/F227L; test: single round infection assay, V106A/G190A/F227L; assay type: cell-based
Protocol: as §1, §2, §3

[8] = tested on: HIV-1 RT mutant V106A/F227L/L234I; test: single round infection assay, V106A/F227L/L234I; assay type: cell-based; conditions: for IC50: ± SD, n=4
Protocol: as §1, §2, §3

HIV-1 RT mutant D67E = test: single round infection assay, D67E; assay type: cell-based; conditions: D67E vs WT
Protocol: as §1, §2, §3

HIV-1 RT mutant L100I = tested on: HIV-1 RT mutant L100I; parameters: method as in PMID 23217210; conditions: previous study; cited from earlier work
[9] = tested on: HIV-1 RT mutant K103N/Y181C; parameters: method as in PMID 23217210; conditions: previous study; cited from earlier work

For `Cc1cc(/C=C/C#N)cc(C)c1Nc1nc(Nc2ccc(C#N)cc2)nc2[nH]cnc12` [compound 11], the “fold-change of IC50 of the mutant relative to WT” value (HIV-1 RT mutant M230L) is given as 3, the IC50 (HIV-1 RT mutant K103N) is given as less than 7 nM and the “fold-change of IC50 of the mutant relative to WT” value [1] is given as less than 2. The IC50 (HIV-1 RT mutant Y181C) was less than 7 nM, the IC50 (HIV-1 RT mutant P236L; Human immunodeficiency virus 1) was 0.87 ± 0.2 nM and the “fold-change of IC50 of the mutant relative to WT” value (HIV-1 RT mutant P236L; P236L vs WT) was less than 2. For the same compound, the “fold-change of IC50 of the mutant relative to WT” value (HIV-1 RT mutant E138K) was less than 2, the IC50 (WT HIV-1 [2]) was 0.56 ± 0.08 nM and the IC50 ([3]; Human immunodeficiency virus 1) was 2.5 nM. The “fold-change of IC50 of the mutant relative to WT” value ([3]; K101P/V179I vs WT) was 4, the IC50 (HIV-1 RT mutant G190A) was 0.45 ± 0.01 nM and the IC50 (WT HIV-1 [4]) was less than 7 nM. For the same compound, the IC50 (HIV-1 RT mutant Y181I; Human immunodeficiency virus 1) was 2.4 nM, the “fold-change of IC50 of the mutant relative to WT” value (HIV-1 RT mutant Y181I; Y181I vs WT) was 4 and the IC50 (HIV-1 RT mutant K101P; Human immunodeficiency virus 1) was 2.4 nM. The “fold-change of IC50 of the mutant relative to WT” value (HIV-1 RT mutant K101P; K101P vs WT) was 4, the IC50 [5] was 0.22 ± 0.06 nM and the “fold-change of IC50 of the mutant relative to WT” value [6] was less than 2. The IC50 (HIV-1 RT mutant H221Y) was less than 7 nM, the IC50 (HIV-1 RT mutant G190S) was 0.2 ± 0.07 nM and the IC50 ([7]; Human immunodeficiency virus 1) was 0.98 ± 0.17 nM. For the same compound, the “fold-change of IC50 of the mutant relative to WT” value ([7]; V106A/G190A/F227L vs WT) was less than 2, the IC50 ([8]; Human immunodeficiency virus 1, V106A/F227L/L234I (selected by DOR)) was less than 5 nM and the IC50 ([8]; V106A/F227L/L234I (selected by DOR)) was 3.4 ± 1.1 nM. For the same compound, the “fold-change of IC50 of the mutant relative to WT” value ([8]; V106A/F227L/L234I vs WT) was 6, the “fold-change of IC50 of the mutant relative to WT” value (HIV-1 RT mutant D67E) was less than 2 and the IC50 (HIV-1 RT mutant L100I) was less than 7 nM. For the same compound, the IC50 [9] was less than 5 nM.
